# Like-named read-outs stand apart in the source and are kept apart here.
# Key:
# [1] = in vitro; assay type: cell-based; conditions: human
# Excerpt: TABLE 3 Cytotoxicity of AB-452 against cells derived from various tissues | column: AB-452 CC50 (μM)
# [2] = system: HBV RNA poly(A) tails; conditions: Huh-7, 100 nM
# [3] = system: HCMV; test: Antiviral selectivity panel, CPE in MRC-5 cells; assay type: cell-based, human cytomegalovirus; conditions: Human betaherpesvirus 5, MRC5; MRC-5, CPE
# [4] = system: HBV; test: HBV replication intermediates and viral proteins in HepG2.2.15 cells (Northern, Western, particle gel, Southern); assay type: cell-based, hepatitis B virus; conditions: HepG2.2.15, 6 days; ETV, GLS-4, cmpdA 1 μM; AB-452 70 nM
# Protocol: Total cellular RNA was extracted from HepG2.2.15 or HepAD38 cells treated with or without antiviral compounds using TRIzol reagent according to the manufacturer's directions (Thermo Fisher Scientific, Waltham, MA). Northern blotting was performed as described previously ([1]). Briefly, total RNA was separated in a 1.5% agarose gel and transferred onto an Amersham Hybond-XL membrane (product no. GERPN303S; GE Healthcare, IL, USA). Membranes were probed with an [α-^32P]UTP (PerkinElmer, CT, USA)-labeled minus strand-specific full-length HBV riboprobe (3.2 kb) transcribed from plasmid pSP65_HBV(+) DNA. Membranes were exposed to a phosphoimager screen, and the hybridization signals were quantified using Image Studio software (Li-Cor Biosciences, NE, USA).
# Total intracellular viral core-associated DNA was extracted as described previously ([1]) and analyzed by Southern blotting hybridization with an [α-^32P]UTP-labeled full-length HBV riboprobe (3.2 kb) that specifically hybridized to minus strand of viral DNA. Membranes were exposed to a phosphoimager screen, and the hybridization signals were quantified using Image Studio software.
# HepG2.2.15 or HepAD38 cells cultured in a 12-well plate were lysed with 200 μl Laemmli sample buffer (Bio-Rad, PA, USA) supplemented with 2.5% 2-mercaptoethanol (Sigma-Aldrich, MO, USA). […]
# [5] = system: HBV; test: Multiple in vitro HBV replication models (summary statements); assay type: cell-based; conditions: Hepatitis B virus
# Protocol: AB-452 and RG7834 both belong to the dihydroquinolizinones chemical class. The antiviral activities of AB-452 and its diastereomer ARB-169451 were evaluated using multiple in vitro HBV replication models, including HepG2.2.15 cells (which constitutively express HBV through the integrated viral genome), PLC/PRF/5 cells (a patient-derived hepatocellular carcinoma cell line only expressing HBsAg), and HBV-infected HepG2-NTCP cells or primary human hepatocytes (PHHs) in which viral replication was dependent on cccDNA transcription (Table 1).
# [6] = system: HBV RNA poly(A) tails; test: HBV poly(A) tail length and composition (NGS) in HepAD38 cells; assay type: cell-based, hepatitis B virus; conditions: HepAD38, 70 nM
# Protocol: RNA metabolism in most eukaryotic mRNAs employs the 3′ deadenylation pathway in which poly(A) tail shortening is often observed prior to mRNA degradation ([38][–][40]). We therefore determined the HBV poly(A) tail length and composition from HepAD38 cells in the presence or absence of AB-452. To amplify the HBV poly(A) tail, G/I (guanosine and inosine nucleotides) tailing was added to the 3′ ends of mRNA transcripts, and the newly added G/I tails were used as the priming sites to synthesize the cDNA that would be used for amplification of HBV poly(A) tails. The lengths and compositions of the amplicons containing the HBV RNA poly(A) tails were analyzed by next-generation sequencing (PacBio Sequel sequencing platform). […] The poly(A) tails amplified from β-actin cDNAs served as the negative control, which was not affected by the treatment (Fig. 3D).
# ACTB GSP primers include 5′-[…] -3′ (sense) and 5′-[…] -3′(antisense). Amplified products were used as loading control. […] Accuracy cutoff default was 0.9.
structure (smiles),measurement,setting,value
COCCCOc1cc2c(nc1OC)-c1cc(=O)c(C(=O)O)cn1[C@H](C(C)C)C2 [AB-452],CC50,[1],> 30000 nM
same,poly(A) tail length of H133_dSLα transcripts,[2]; untreated 71,62 nucleotides
same,average poly(A) tail length of H133 transcripts,[2]; untreated 124,64 nucleotides
same,"overall guanylation frequency, H133",[2]; untreated about 60%,24%
same,EC50,[3],> 30000 nM
same,Effect on HBV replication intermediates and viral proteins,[4],"reducing intracellular pgRNA, sRNA, core protein, native capsids, encapsidated pgRNA, and replicating HBV DNA"
same,EC50,"[5]; HepG2.2.15, PLC/PRF/5, HepG2-NTCP, PHH, read-out: HBsAg, HBeAg and HBV DNA EC50 (range over models)",0.28 to 6.8 nM
same,EC50,"[5]; abstract, read-out: HBsAg EC50 in vitro (range over models)",1.4 to 6.8 nM
same,average HBV RNA poly(A) tail length,"[6]; 4 h, untreated around 100",58 nucleotides
same,fraction of poly(A) tails containing internal G,[6]; untreated 64%,25%

# From paper PMC8387043, “Host Poly(A) Polymerases PAPD5 and PAPD7 Provide Two Layers of Protection That Ensure the Integrity and Stability of Hepatitis B Virus RNA” (Journal of Virology, 2021)
